Where “and” joins values, the source holds several entries; their conditions need not be identical. Equal entries are not always repeated.
Legend:
[1] = system: processed PfSTART1 (proc1, proc2) in schizonts; assay: Processing of PfSTART1 along schizogony with egress inhibitors (Western blot densitometry); type: cell-based, Plasmodium falciparum; conditions: for Normalised by EXP2: START full length / Normalised by EXP2: START processed 1 / Normalised by EXP2: START processed 2 / Normalised by EXP2 and full length: START processed 1 / Normalised by EXP2 and full length: START processed 2 / Raw densitometry: START full length / Raw densitometry: START processed 1 / Raw densitometry: START processed 2: biological replicates 1-5
Method: Magnet-purified schizonts were harvested after a 4 h treatment with the following: DMSO (0.1%), 49c (10 nM), C1 (1.5 μM) or E64 (10 μM). Parasites were washed in ice-cold PBS + PI (centrifugation steps carried out at 4 °C at 3,000 g). Samples were resuspended in NRSB, sonicated, boiled 10 min at 80 °C and separated by electrophoresis as explained previously. The parasites used in this experiment were 3D7 transfected with p1.2-ABH(WT)-83-HA-glmS, i.e. parasites containing a recodonised version of PF3D7_0403800 within its genome. […]
(DMSO). Schizonts were saponin -lysed. (E) Synchronised 3D7 schizonts were magnet-purified, stalled at different stages of egress: 4 h with 10 nM 49c (plasmepsin X inhibitor), 1.5 µM compound 1 (C1; PKG inhibitor), 10 µM E64, or allowed to progress (DMSO). Whole cells were harvested. PEXEL-cleaved, and the two further processed forms of PfSTART1 are indicated by solid and empty arrows respectively.
(F) Densitometry of processed PfSTART1 (proc1 and proc2) was normalised to the corresponding PEXEL-cleaved PfSTART1. n=10 replicates (n=6 for the 49c treatment). Two-way ANOVA with Šídák's multiple comparisons test (compare each

[2] = system: P. berghei sporozoites invading HC-04 human liver cells; assay: In vitro liver invasion assay; type: cell-based, Plasmodium berghei; conditions: Replicate 1 and 2
Method: P. berghei ANKA constitutively expressing mCherry[82] was used for the in vitro liver stage invasion assay. Animals used for the generation of the sporozoites were 4- to 5-week-old male Swiss Webster mice and were purchased from the Monash Animal Services (Melbourne, Victoria, Australia) and housed at 22 to 25 °C on a 12 h light/dark cycle with 40-70% humidity at the School of Biosciences, The University of Melbourne, Australia. All animal experiments were in accordance with the Prevention of Cruelty to Animals Act 1986, the Prevention of Cruelty to Animals Regulations 2008, and National Health and Medical Research Council (2013) Australian code for the care and use of animals for scientific purposes. These experiments were reviewed and permitted by the Melbourne University Animal Ethics Committee (2015123).
Infections of naïve Swiss mice were carried out by intraperitoneal (IP) inoculation obtained from a donor mouse between the first and fourth passages from cryopreserved stock. Parasitemia was monitored by Giemsa smear and exflagellation quantified 3 days post-infection. A. stephensi mosquitoes were allowed to feed on anaesthetised mice once the exflagellation rate was assessed between about 12 to 15 exflagellation events per 1 × 10^4 RBCs. Salivary glands of infected mosquitoes (days 17 to 24 post-infection) were isolated by dissection and parasites placed into RPMI-1640 media.
This was performed essentially as described[83] with the minor variations outlined in the Supplementary Information. […]
In vitro liver invasion assays. This was performed essentially as described16 with the following variations. In vitro human liver HCO4 cells (ATCC) were seeded at 1 × 10^5 cells/mL, grown for 24 h and then infected for 2 h with 30,000 Pb ANKA mCherry […]
expressing sporozoites. Following fixation, an IFA with anti -CSP antibody (1:500) followed by anti-mouse Alexafluor 488 (1:1 ,000; Invitrogen, Carlsbad, CA, USA) labels uninvaded parasites. Fluorescence signal was assessed using an Olympus CKX41 epifluorescence microscope. […]
Gametogenesis was then triggered by the addition of 10 μL ookinete medium (gametocyte culture medium supplemented with 100 μM xanthurenic acid and 0.27 µg/mL Cy3-labelled anti-Pfs25 antibody) to each well at room temperature. Plates were then cooled on a metal block at 4°C for four min to ensure even cooling and then stabilised for a further 4 min at 28°C. At 20 min post-induction, male gametogenesis was recorded in each well by automated brightfield microscopy using a x4 objective lens and 1.5x magnifier (x6 effective magnification). Afterward, plates were incubated in the dark at room temperature for 24 h and then female gametogenesis recorded in each well by automated fluorescence microscopy (anti-Pfs25-positive cells). All experiments were performed in quadruplicate with DMSO and cabamiquine (DDD107498)17 as negative and positive controls respectively. All data was evaluated in comparison to the positive and negative controls to calculate percentage inhibition of male and female gametocytes, and dose response analysis and IC50 calculation performed using GraphPad Prism. […]
The pellet was subjected to five

[3] = schizonts treated 4 h: 49c 10 nM, C1 1.5 μM, E64 10 μM, vs DMSO and other treatments

SMILES: CC(C)C[C@H](NC(=O)[C@H]1O[C@@H]1C(=O)O)C(=O)NCCCCN=C(N)N [E64]
- Normalised by EXP2: START full length ([1]; BLOT AMA1, '+' lane): 9.91E+01 and 2.44E+01 and 1.44E+02 and 6.49E+01 and 9.10E+02
- Normalised by EXP2: START processed 1 ([1]; BLOT AMA1, '+' lane): 5.50E+01 and 7.11E+00 and 4.58E+01 and 1.53E+01 and 3.44E+02
- Normalised by EXP2: START processed 2 ([1]; BLOT AMA1, '+' lane): 9.13E+01 and 1.13E+01 and 7.80E+01 and 1.03E+01 and 3.88E+02
- Normalised by EXP2 and full length: START processed 1 ([1]; BLOT AMA1, '+' lane): 5.54E+01 and 2.91E+01 and 3.18E+01 and 2.36E+01 and 3.78E+01
- Normalised by EXP2 and full length: START processed 2 ([1]; BLOT AMA1, '+' lane): 9.21E+01 and 4.63E+01 and 5.42E+01 and 1.59E+01 and 4.26E+01
- Raw densitometry: START full length ([1]; BLOT AMA1, '+' lane): 9.54 and 2.49E+01 and 26.4 and 2.01E+01 and 2.02E+01
- Raw densitometry: START processed 1 ([1]; BLOT AMA1, '+' lane): 2.78 and 7.92E+00 and 6.24 and 7.59E+00 and 1.12E+01
- Raw densitometry: START processed 2 ([1]; BLOT AMA1, '+' lane): 4.42 and 1.35E+01 and 4.19 and 8.56E+00 and 1.86E+01
- Normalised by EXP2: START full length ([1]; BLOT AMA1, '-' lane): 1.05E+02 and 2.53E+01 and 1.75E+02 and 7.60E+01 and 6.88E+02
- Normalised by EXP2: START processed 1 ([1]; BLOT AMA1, '-' lane): 6.93E+01 and 7.41E+00 and 5.19E+01 and 1.82E+01 and 2.72E+02
- Normalised by EXP2: START processed 2 ([1]; BLOT AMA1, '-' lane): 9.19E+01 and 9.39E+00 and 9.29E+01 and 7.65E+00 and 2.73E+02
- Normalised by EXP2 and full length: START processed 1 ([1]; BLOT AMA1, '-' lane): 6.61E+01 and 2.93E+01 and 2.98E+01 and 2.39E+01 and 3.96E+01
- Normalised by EXP2 and full length: START processed 2 ([1]; BLOT AMA1, '-' lane): 8.76E+01 and 3.72E+01 and 5.32E+01 and 1.01E+01 and 3.96E+01
- Raw densitometry: START full length ([1]; BLOT AMA1, '-' lane): 8.29 and 2.80E+01 and 29.3 and 1.80E+01 and 2.42E+01
- Raw densitometry: START processed 1 ([1]; BLOT AMA1, '-' lane): 2.43 and 8.33E+00 and 7.01 and 7.12E+00 and 1.60E+01
- Raw densitometry: START processed 2 ([1]; BLOT AMA1, '-' lane): 3.08 and 1.49E+01 and 2.95 and 7.13E+00 and 2.12E+01
- Normalised by EXP2: START full length ([1]; BLOT Rh5, '+' lane): 7.41E+01 and 1.24E+02 and 2.65E+01 and 1.82E+02 and 1.65E+02
- Normalised by EXP2: START processed 1 ([1]; BLOT Rh5, '+' lane): 5.05E+01 and 4.02E+01 and 7.30E+00 and 3.75E+01 and 7.40E+01
- Normalised by EXP2: START processed 2 ([1]; BLOT Rh5, '+' lane): 7.26E+01 and 3.45E+01 and 1.15E+01 and 3.53E+01 and 8.50E+01
- Normalised by EXP2 and full length: START processed 1 ([1]; BLOT Rh5, '+' lane): 6.81E+01 and 3.26E+01 and 2.75E+01 and 2.05E+01 and 4.47E+01
- Normalised by EXP2 and full length: START processed 2 ([1]; BLOT Rh5, '+' lane): 9.79E+01 and 2.79E+01 and 4.33E+01 and 1.93E+01 and 5.14E+01
- Raw densitometry: START full length ([1]; BLOT Rh5, '+' lane): 12.9 and 1.34E+01 and 3.87E+01 and 2.57E+01 and 1.42E+01
- Raw densitometry: START processed 1 ([1]; BLOT Rh5, '+' lane): 4.2 and 3.69E+00 and 7.95E+00 and 1.15E+01 and 9.67E+00
- Raw densitometry: START processed 2 ([1]; BLOT Rh5, '+' lane): 3.6 and 5.80E+00 and 7.48E+00 and 1.32E+01 and 1.39E+01
- Normalised by EXP2: START full length ([1]; BLOT Rh5, '-' lane): 8.04E+01 and 1.20E+02 and 3.28E+01 and 2.15E+02 and 2.08E+02
- Normalised by EXP2: START processed 1 ([1]; BLOT Rh5, '-' lane): 5.15E+01 and 3.77E+01 and 7.46E+00 and 4.92E+01 and 7.28E+01
- Normalised by EXP2: START processed 2 ([1]; BLOT Rh5, '-' lane): 6.74E+01 and 3.23E+01 and 1.26E+01 and 2.81E+01 and 6.72E+01
- Normalised by EXP2 and full length: START processed 1 ([1]; BLOT Rh5, '-' lane): 6.41E+01 and 3.14E+01 and 2.27E+01 and 2.28E+01 and 3.49E+01
- Normalised by EXP2 and full length: START processed 2 ([1]; BLOT Rh5, '-' lane): 8.38E+01 and 2.69E+01 and 3.85E+01 and 1.30E+01 and 3.22E+01
- Raw densitometry: START full length ([1]; BLOT Rh5, '-' lane): 9.62 and 1.50E+01 and 4.00E+01 and 3.32E+01 and 1.67E+01
- Raw densitometry: START processed 1 ([1]; BLOT Rh5, '-' lane): 3.02 and 3.41E+00 and 9.14E+00 and 1.16E+01 and 1.07E+01
- Raw densitometry: START processed 2 ([1]; BLOT Rh5, '-' lane): 2.59 and 5.78E+00 and 5.21E+00 and 1.07E+01 and 1.40E+01
- level of PfSTART1proc1 normalised to PEXEL-cleaved PfSTART1 [1, 3]: contained most of both processed bands
- level of PfSTART1proc2 normalised to PEXEL-cleaved PfSTART1 [1, 3]: significant enrichment in PfSTART1proc2

SMILES: C=C1[C@@H](C)[C@H]2[C@H](Cc3ccccc3)NC(=O)[C@]23[C@H](OC(C)=O)/C=C/[C@@](C)(O)C(=O)[C@@H](C)C/C=C/[C@H]3[C@@H]1O [cytD, cytochalasin D, reference compound]
- Liver stage invasion assay: in ([2]; count of sporozoites inside cells): 2
- Liver stage invasion assay: out ([2]; count of sporozoites outside cells): 118 and 305
- Liver stage invasion assay: ratio ([2]; in relative to in + out): 1.667 and 0.6515
